Patent publication US8952026B2, “PRMT1 inhibitors and uses thereof” (Epizyme, Inc., priority 2013, dated 2015)
Each block holds one compound with its values, some of them ahead of it.

Target: T1, full-length human GST-tagged PRMT1 (Homo sapiens, UniProt Q99873)
T1 construct: GST-tagged PRMT1; made in house; host or cells: High Five insect cells (baculovirus, pFastBacI)
Assay: PRMT1 Biochemical Assay (3H-SAM Flashplate, histone H4 peptide substrate)
Excerpt: General Materials. S-adenosylmethionine (SAM), S-adenosylhomocysteine (SAH), bicine, Tween20, dimethylsulfoxide (DMSO), bovine skin gelatin (BSG), and Tris(2-carboxyethyl)phosphine hydrochloride solution (TCEP) were purchased from Sigma-Aldrich at the highest level of purity possible. ^3H-SAM was purchase from American Radiolabeled Chemicals with a specific activity of 80 Ci/mmol. 384-well streptavidin Flashplates were purchased from PerkinElmer.
Protein Expression. Recombinant baculovirus were generated according to Bac-to-Bac kit instructions (Life Technologies). Protein over-expression was accomplished by infecting exponentially growing High Five insect cell culture at 1.5×10^6cell/ml with 1:100 ratio of virus. Infections were carried out at 27° C. for 48 hours, harvested by centrifugation, and stored at −80° C. for purification.
Protein Purification. […] GST-tagged PRMT1 was eluted with 50 mM Tris, 2 mM glutathione, pH 7.8, dialysed in buffer A and concentrated to 1 mg/mL.
General Procedure for PRMT1 Enzyme Assays on Peptide Substrates. The assays were all performed in a buffer consisting of 20 mM Bicine (pH=7.6), 1 mM TCEP, 0.005% BSG, and 0.002% Tween 20, prepared on the day of use. […] DMSO (1 ul) was added to Columns 11, 12, 23, 24, rows A-H for the maximum signal control and 1 ul of SAH, a known product and inhibitor of PRMT1, was added to columns 11, 12, 23, 24, rows I-P for the minimum signal control. A cocktail (40 ul) containing the PRMT1 enzyme was added by Multidrop Combi (Thermo-Fisher). The compounds were allowed to incubate with PRMT1 for 30 min at room temperature, then a cocktail (10 ul) containing SAM and peptide was added to initiate the reaction (final volume=51 ul). […] The assays were stopped by the addition of non-radiolabeled SAM (10 ul) to a final concentration of 300 uM, which dilutes the ^3H-SAM to a level where its incorporation into the peptide substrate is no longer detectable. 50 ul of the reaction in the 384-well polypropylene plate was then transferred to a 384-well Flashplate and the biotinylated peptides were allowed to bind to the streptavidin surface for at least 1 hour before being washed once with 0.1% Tween20 in a Biotek ELx405 plate washer. The plates were then read in a PerkinElmer TopCount plate reader to measure the quantity of ^3H-labeled peptide bound to the Flashplate surface, measured as disintegrations per minute (dpm) or alternatively, referred to as counts per minute (cpm).
Where dpm=disintegrations per minute, cmpd=signal in assay well, and min and max are the respective minimum and maximum signal controls.
Where top and bottom are the normally allowed to float, but may be fixed at 100 or 0 respectively in a 3-parameter fit. The Hill Coefficient normally allowed to float but may also be fixed at 1 in a 3-parameter fit. Y is the % inhibition and X is the compound concentration.

T1 sequence (Q99873 with tags, fused parts or gaps): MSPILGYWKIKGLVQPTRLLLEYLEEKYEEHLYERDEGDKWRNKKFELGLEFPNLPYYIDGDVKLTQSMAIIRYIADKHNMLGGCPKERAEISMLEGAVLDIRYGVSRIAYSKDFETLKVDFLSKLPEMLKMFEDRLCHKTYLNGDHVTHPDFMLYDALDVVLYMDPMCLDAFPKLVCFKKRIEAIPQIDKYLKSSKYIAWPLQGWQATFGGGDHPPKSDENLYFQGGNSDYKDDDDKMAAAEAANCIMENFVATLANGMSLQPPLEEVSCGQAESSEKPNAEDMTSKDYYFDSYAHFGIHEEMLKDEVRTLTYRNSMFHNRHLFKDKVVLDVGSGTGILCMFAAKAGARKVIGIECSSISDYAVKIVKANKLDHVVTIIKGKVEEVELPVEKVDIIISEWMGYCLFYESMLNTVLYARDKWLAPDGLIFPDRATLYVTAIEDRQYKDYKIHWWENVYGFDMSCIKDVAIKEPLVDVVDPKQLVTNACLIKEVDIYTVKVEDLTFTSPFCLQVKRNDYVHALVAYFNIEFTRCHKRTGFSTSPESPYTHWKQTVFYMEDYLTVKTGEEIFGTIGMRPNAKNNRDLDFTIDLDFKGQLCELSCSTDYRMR

Structure (SMILES): CNCCN(C)Cc1c[nH]nc1-c1cc(Oc2ccccc2)cc(C(F)(F)F)c1 [Compound 36]
IC50: < 0.1 µM

Structure (SMILES): CNCCN(C)Cc1c[nH]nc1-c1cc(OCCCC(F)(F)F)cc(C(F)(F)F)c1 [Compound 48]
IC50: < 0.1 µM

Structure (SMILES): CNCCN(C)Cc1n[nH]cc1-c1cc(OCCCOC)cc(C(F)(F)F)c1 [Compound 27]
IC50: 0.101 to 1 µM

Structure (SMILES): CNCCN(C)Cc1c[nH]nc1-c1cc(Cl)c(OCC2CC2)c(C(F)(F)F)c1 [Compound 41]
IC50: < 0.1 µM

Structure (SMILES): CNCCN(C)Cc1c[nH]nc1-c1cc(Oc2ccncc2)cc(C(F)(F)F)c1 [Compound 38]
IC50: 0.101 to 1 µM

Structure (SMILES): CNCCN(C)Cc1c[nH]nc1-c1cc(OCCOC)c(Cl)c(C(F)(F)F)c1 [Compound 55]
IC50: 0.101 to 1 µM

Structure (SMILES): CC(C)CCOc1cc(-c2n[nH]cc2CN(C)CCN)cc(C(F)(F)F)c1Cl [Compound 40]
IC50: 0.101 to 1 µM

Structure (SMILES): CC(C)Oc1ccc(-c2c[nH]nc2CN(C)CCN)cc1C(F)(F)F [Compound 8]
IC50: < 0.1 µM

Structure (SMILES): CNCCN(C)Cc1c[nH]nc1-c1cc(OCC2CCOCC2)cc(C(F)(F)F)c1 [Compound 46]
IC50: < 0.1 µM

Structure (SMILES): CNCCN(C)Cc1c[nH]nc1-c1ccc(OCC(C)C)c(C(F)(F)F)c1 [Compound 10]
IC50: < 0.1 µM

Structure (SMILES): CNCCN(C)Cc1c[nH]nc1-c1cc(OCC(F)(F)F)cc(C(F)(F)F)c1 [Compound 60]
IC50: < 0.1 µM

Structure (SMILES): CCCOc1ccc(-c2n[nH]cc2CN(C)CCNC)cc1C(F)(F)F [Compound 11]
IC50: < 0.1 µM

Structure (SMILES): CCCOc1ccc(-c2c[nH]nc2CN(C)CCNC)cc1C(F)(F)F [Compound 28]
IC50: < 0.1 µM

Structure (SMILES): CNCCN(C)Cc1c[nH]nc1-c1cc(OCC(C)C)cc(C(F)(F)F)c1 [Compound 15]
IC50: < 0.1 µM

Structure (SMILES): CNCCN(C)Cc1c[nH]nc1-c1ccc(OCCOC)c(C(F)(F)F)c1 [Compound 14]
IC50: < 0.1 µM

Structure (SMILES): CNCCN(C)Cc1c[nH]nc1-c1cc(Cl)c(OC(C)C)c(C(F)(F)F)c1 [Compound 25]
IC50: < 0.1 µM

Structure (SMILES): CNCCN(C)Cc1c[nH]nc1-c1cc(C)c(OCC2CCOCC2)c(C(F)(F)F)c1 [Compound 65]
IC50: < 0.1 µM

Structure (SMILES): CNCCN(C)Cc1c[nH]nc1-c1cc(Cl)c(OCC2CCC2)c(C(F)(F)F)c1 [Compound 35]
IC50: < 0.1 µM

Structure (SMILES): CNCCN(C)Cc1n[nH]cc1-c1cc(OCCOC)cc(C(F)(F)F)c1 [Compound 30]
IC50: 0.101 to 1 µM

Structure (SMILES): CNCCN(C)Cc1n[nH]cc1-c1ccc(OCCOC)c(C(F)(F)F)c1 [Compound 21]
IC50: < 0.1 µM

Structure (SMILES): CNCCN(C)Cc1c[nH]nc1-c1cc(OCCOC)c(F)c(C(F)(F)F)c1 [Compound 64]
IC50: < 0.1 µM

Structure (SMILES): CNCCN(C)Cc1c[nH]nc1-c1cc(OCCCC(=O)OC)cc(C(F)(F)F)c1 [Compound 61]
IC50: < 0.1 µM

Structure (SMILES): CN(CCN)Cc1c[nH]nc1-c1ccc(Cl)c(C(F)(F)F)c1 [Compound 3]
IC50: < 0.1 µM

Structure (SMILES): CNCCN(C)Cc1c[nH]nc1-c1cc(OCCOC)cc(C(F)(F)F)c1 [Compound 16]
IC50: < 0.1 µM

Structure (SMILES): CNCCN(C)Cc1c[nH]nc1-c1ccc(CC(C)C)c(C(F)(F)F)c1 [Compound 34]
IC50: < 0.1 µM

Structure (SMILES): CNCCN(C)Cc1c[nH]nc1-c1cc(OCC2CCCC2)cc(C(F)(F)F)c1 [Compound 45]
IC50: < 0.1 µM

Structure (SMILES): CCCOc1cc(-c2n[nH]cc2CN(C)CCNC)cc(C(F)(F)F)c1 [Compound 19]
IC50: < 0.1 µM

Structure (SMILES): CNCCN(C)Cc1c[nH]nc1-c1cc(OCCCC(C)=O)cc(C(F)(F)F)c1 [Compound 49]
IC50: < 0.1 µM

Structure (SMILES): CNCCN(C)Cc1c[nH]nc1-c1cc(OCCCOC)cc(C(F)(F)F)c1 [Compound 24]
IC50: < 0.1 µM

Structure (SMILES): COCCOc1cc(-c2n[nH]cc2CN(C)CCN)cc(C(F)(F)F)c1Cl [Compound 56]
IC50: 0.101 to 1 µM

Structure (SMILES): CNCCN(C)Cc1n[nH]cc1-c1cc(OCC(C)C)cc(C(F)(F)F)c1 [Compound 29]
IC50: < 0.1 µM

Structure (SMILES): CNCCN(C)Cc1c[nH]nc1-c1cc(OCCC(C)C)cc(C(F)(F)F)c1 [Compound 12]
IC50: < 0.1 µM

Structure (SMILES): CNCCN(C)Cc1c[nH]nc1-c1cc(Oc2ccccn2)cc(C(F)(F)F)c1 [Compound 52]
IC50: < 0.1 µM

Structure (SMILES): CNCCN(C)Cc1n[nH]cc1-c1cc(Cl)c(OC(C)C)c(C(F)(F)F)c1 [Compound 33]
IC50: < 0.1 µM

Structure (SMILES): CNCCN(C)Cc1n[nH]cc1-c1cc(C(O)C(C)C)cc(C(F)(F)F)c1 (stereo not shown) [Compound 32]
IC50: 1.01 to 3 µM

Structure (SMILES): CNCCN(C)Cc1c[nH]nc1-c1cc(OCc2ccccc2)cc(C(F)(F)F)c1 [Compound 37]
IC50: < 0.1 µM

Structure (SMILES): CNCCN(C)Cc1c[nH]nc1-c1cc(C)c(OC2CCOCC2)c(C(F)(F)F)c1 [Compound 59]
IC50: < 0.1 µM

Structure (SMILES): CN(CCN)Cc1c[nH]nc1-c1ccc(Oc2ccccc2)c(C(F)(F)F)c1 [Compound 23]
IC50: < 0.1 µM

Structure (SMILES): CNCCN(C)Cc1n[nH]cc1-c1ccc(OCC(C)C)c(C(F)(F)F)c1 [Compound 18]
IC50: < 0.1 µM

Structure (SMILES): CNCCN(C)Cc1c[nH]nc1-c1cc(OCCc2ccccc2OC)cc(C(F)(F)F)c1 [Compound 50]
IC50: < 0.1 µM

Structure (SMILES): CN(CCN)Cc1c[nH]nc1-c1ccc(F)c(C(F)(F)F)c1 [Compound 4]
IC50: < 0.1 µM

Structure (SMILES): CNCCN(C)Cc1c[nH]nc1-c1cc(Oc2cccnc2)cc(C(F)(F)F)c1 [Compound 51]
IC50: < 0.1 µM

Structure (SMILES): CC(C)Oc1ccc(-c2n[nH]cc2CN(C)CCN)cc1C(F)(F)F [Compound 5]
IC50: < 0.1 µM

Structure (SMILES): CNCCN(C)Cc1n[nH]cc1-c1ccc(OCCCOC)c(C(F)(F)F)c1 [Compound 20]
IC50: < 0.1 µM

Structure (SMILES): CCC(CC)Oc1cc(-c2n[nH]cc2CN(C)CCNC)cc(C(F)(F)F)c1 [Compound 47]
IC50: < 0.1 µM

Structure (SMILES): CC(C)CCc1cc(-c2n[nH]cc2CN(C)CCN)cc(C(F)(F)F)c1 [Compound 63]
IC50: < 0.1 µM

Structure (SMILES): CN(CCN)Cc1n[nH]cc1-c1ccc(Oc2ccccc2)c(C(F)(F)F)c1 [Compound 26]
IC50: < 0.1 µM

Structure (SMILES): CNCCN(C)Cc1c[nH]nc1-c1cc(OCCC(C)C)c(Cl)c(C(F)(F)F)c1 [Compound 54]
IC50: 0.101 to 1 µM

Structure (SMILES): CNCCN(C)Cc1c[nH]nc1-c1cc(CCC(C)C)cc(C(F)(F)F)c1 [Compound 62]
IC50: < 0.1 µM

Structure (SMILES): CNCCN(C)Cc1c[nH]nc1-c1cc(C)c(OC2COC2)c(C(F)(F)F)c1 [Compound 66]
IC50: < 0.1 µM

Structure (SMILES): CNCCN(C)Cc1c[nH]nc1-c1cc(OCC2CCC2)cc(C(F)(F)F)c1 [Compound 44]
IC50: < 0.1 µM

Structure (SMILES): CNCCN(C)Cc1c[nH]nc1-c1cc(C)c(OCC2CCC2)c(C(F)(F)F)c1 [Compound 58]
IC50: < 0.1 µM

Structure (SMILES): CNCCN(C)Cc1c[nH]nc1-c1cc(Oc2cncnc2)cc(C(F)(F)F)c1 [Compound 53]
IC50: 0.101 to 1 µM

Structure (SMILES): CNCCN(C)Cc1c[nH]nc1-c1ccc(OCCCOC)c(C(F)(F)F)c1 [Compound 13]
IC50: < 0.1 µM

Structure (SMILES): CNCCN(C)Cc1c[nH]nc1-c1cc(OC2CCCCC2)cc(C(F)(F)F)c1 [Compound 39]
IC50: < 0.1 µM

Structure (SMILES): CN(CCN)Cc1n[nH]cc1-c1cc(C(F)(F)F)cc(C(F)(F)F)c1 [Compound 7]
IC50: 1.01 to 3 µM

Structure (SMILES): CNCCN(C)Cc1c[nH]nc1-c1cc(OCCCOC)c(Cl)c(C(F)(F)F)c1 [Compound 57]
IC50: < 0.1 µM

Structure (SMILES): CNCCN(C)Cc1c[nH]nc1-c1cccc(C(F)(F)F)c1 [Compound 1]
IC50: 0.101 to 1 µM

Structure (SMILES): CC(C)Oc1cc(-c2n[nH]cc2CN(C)CCN)cc(C(F)(F)F)c1 [Compound 6]
IC50: < 0.1 µM

Structure (SMILES): CNCCN(C)Cc1n[nH]cc1-c1cc(OCCC(C)C)cc(C(F)(F)F)c1 [Compound 22]
IC50: < 0.1 µM

IC50: < 0.1 µM
Structure (SMILES): CNCCN(C)Cc1n[nH]cc1-c1ccc(OCCC(C)C)c(C(F)(F)F)c1 [Compound 17]

Structure (SMILES): CN(CCN)Cc1c[nH]nc1-c1cc(C(F)(F)F)cc(C(F)(F)F)c1 [Compound 2]
IC50: 0.101 to 1 µM

Structure (SMILES): CNCCN(C)Cc1c[nH]nc1-c1ccc(OCCC(C)C)c(C(F)(F)F)c1 [Compound 9]
IC50: < 0.1 µM

Structure (SMILES): CCCOc1cc(-c2c[nH]nc2CN(C)CCNC)cc(C(F)(F)F)c1 [Compound 31]
IC50: 0.101 to 1 µM
